Source: PubChem BioAssay (NCI)
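Results reflect a 48-hour exposure of cells in 96-well plates to compound at five concentrations. TGI marks complete inhibition of growth.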

Experiments:
Experiment in all cases: inhibition of tumour cell growth, NCI panel, 48 h
A498 renal = system: A498 renal
A549 NSCLC = system: A549 NSCLC
ACHN renal = system: ACHN renal
CCRF-CEM leukemia = system: CCRF-CEM leukemia
COLO 205 colon = system: COLO 205 colon
DLD-1 colon = system: DLD-1 colon
DMS 114 small cell lung = system: DMS 114 small cell lung
DMS 273 small cell lung = system: DMS 273 small cell lung
EKVX NSCLC = system: EKVX NSCLC
HCC-2998 colon = system: HCC-2998 colon
HCT-116 colon = system: HCT-116 colon
HOP-62 NSCLC = system: HOP-62 NSCLC
HOP-92 NSCLC = system: HOP-92 NSCLC
IGROV1 ovarian = system: IGROV1 ovarian
K-562 leukemia = system: K-562 leukemia
KM12 colon = system: KM12 colon
KM20L2 colon = system: KM20L2 colon
LOX IMVI melanoma = system: LOX IMVI melanoma
M14 melanoma = system: M14 melanoma
MALME-3M melanoma = system: MALME-3M melanoma
MOLT-4 leukemia = system: MOLT-4 leukemia
NCI-H226 lung = system: NCI-H226 lung
NCI-H23 lung = system: NCI-H23 lung
NCI-H460 lung = system: NCI-H460 lung
NCI-H522 lung = system: NCI-H522 lung
OVCAR-3 ovarian = system: OVCAR-3 ovarian
OVCAR-4 ovarian = system: OVCAR-4 ovarian
OVCAR-5 ovarian = system: OVCAR-5 ovarian
RPMI-8226 leukemia = system: RPMI-8226 leukemia
RXF 393 renal = system: RXF 393 renal
RXF-631 renal = system: RXF-631 renal
SF-295 CNS = system: SF-295 CNS
SF-539 CNS = system: SF-539 CNS
SK-MEL-2 melanoma = system: SK-MEL-2 melanoma
SK-MEL-5 melanoma = system: SK-MEL-5 melanoma
SK-OV-3 ovarian = system: SK-OV-3 ovarian
SN12C renal = system: SN12C renal
SNB-19 CNS = system: SNB-19 CNS
SR leukemia = system: SR leukemia
SW-620 colon = system: SW-620 colon
TK-10 renal = system: TK-10 renal
U251 CNS = system: U251 CNS
UACC-257 melanoma = system: UACC-257 melanoma
UACC-62 melanoma = system: UACC-62 melanoma
UO-31 renal = system: UO-31 renal
786-0 renal = system: 786-0 renal
CAKI-1 renal = system: CAKI-1 renal
HCT-15 colon = system: HCT-15 colon
HL-60(TB) leukemia = system: HL-60(TB) leukemia
HT29 colon = system: HT29 colon
LXFL 529 NSCLC = system: LXFL 529 NSCLC
M19-MEL melanoma = system: M19-MEL melanoma
OVCAR-8 ovarian = system: OVCAR-8 ovarian
SF-268 CNS = system: SF-268 CNS
SK-MEL-28 melanoma = system: SK-MEL-28 melanoma
SNB-75 CNS = system: SNB-75 CNS
XF 498 CNS = system: XF 498 CNS

Compound COC(=O)CC(=O)OSc1ccccc1 has a TGI (A498 renal) of 65 µM, a TGI (A549 NSCLC) of 77.3 µM and a TGI (ACHN renal) of 56.5 µM. For the same compound, the TGI (CCRF-CEM leukemia) was > 100 µM, the TGI (COLO 205 colon) was 38.2 µM and the TGI (DLD-1 colon) was 48 µM. The TGI (DMS 114 small cell lung) was 25.6 µM, the TGI (DMS 273 small cell lung) was 41 µM and the TGI (EKVX NSCLC) was 89.2 µM. It also gave a TGI (HCC-2998 colon) of 95 µM, a TGI (HCT-116 colon) of 26.9 µM and a TGI (HOP-62 NSCLC) of 53.4 µM. For the same compound, the TGI (HOP-92 NSCLC) was 67.9 µM, the TGI (IGROV1 ovarian) was 20.2 µM and the TGI (K-562 leukemia) was > 100 µM. The TGI (KM12 colon) was > 100 µM, the TGI (KM20L2 colon) was 42.2 µM and the TGI (LOX IMVI melanoma) was 26.9 µM. The TGI (M14 melanoma) was 38.7 µM, the TGI (MALME-3M melanoma) was > 100 µM and the TGI (MOLT-4 leukemia) was > 100 µM. The TGI (NCI-H226 lung) was 64 µM, the TGI (NCI-H23 lung) was 82.9 µM and the TGI (NCI-H460 lung) was > 100 µM. The TGI (NCI-H522 lung) was 12.8 µM, the TGI (OVCAR-3 ovarian) was 36.4 µM and the TGI (OVCAR-4 ovarian) was > 100 µM. For the same compound, the TGI (OVCAR-5 ovarian) was > 100 µM, the TGI (RPMI-8226 leukemia) was > 100 µM and the TGI (RXF 393 renal) was 25.3 µM. The TGI (RXF-631 renal) was 25 µM, the TGI (SF-295 CNS) was 96.3 µM and the TGI (SF-539 CNS) was 25.5 µM. It also gave a TGI (SK-MEL-2 melanoma) of 97.5 µM, a TGI (SK-MEL-5 melanoma) of 87.9 µM and a TGI (SK-OV-3 ovarian) of 46 µM. For the same compound, the TGI (SN12C renal) was 27.1 µM, the TGI (SNB-19 CNS) was > 100 µM and the TGI (SR leukemia) was 42 µM. The TGI (SW-620 colon) was 38.4 µM, the TGI (TK-10 renal) was > 100 µM and the TGI (U251 CNS) was 24.1 µM. For the same compound, the TGI (UACC-257 melanoma) was 87.7 µM, the TGI (UACC-62 melanoma) was 29.5 µM and the TGI (UO-31 renal) was 24.7 µM.
In the case of OCc1cc2c(cn1)[nH]c1ccc(NCc3ccccc3)cc12, the TGI (786-0 renal) is reported as 58.4 µM, the TGI (A498 renal) is reported as 71.7 µM and the TGI (A549 NSCLC) is reported as > 100 µM. The TGI (ACHN renal) was > 100 µM, the TGI (CAKI-1 renal) was > 100 µM and the TGI (CCRF-CEM leukemia) was 64.7 µM. For the same compound, the TGI (COLO 205 colon) was 37 µM, the TGI (DLD-1 colon) was > 100 µM and the TGI (DMS 114 small cell lung) was 51.1 µM. The TGI (DMS 273 small cell lung) was 48 µM, the TGI (EKVX NSCLC) was > 100 µM and the TGI (HCC-2998 colon) was 58.9 µM. For the same compound, the TGI (HCT-116 colon) was 38.4 µM, the TGI (HCT-15 colon) was > 100 µM and the TGI (HL-60(TB) leukemia) was 31.4 µM. For the same compound, the TGI (HOP-62 NSCLC) was > 100 µM, the TGI (HOP-92 NSCLC) was 57.3 µM and the TGI (HT29 colon) was 32.2 µM. For the same compound, the TGI (IGROV1 ovarian) was > 100 µM, the TGI (K-562 leukemia) was > 100 µM and the TGI (KM12 colon) was 43.3 µM. For the same compound, the TGI (KM20L2 colon) was 55.6 µM, the TGI (LOX IMVI melanoma) was > 100 µM and the TGI (LXFL 529 NSCLC) was 58.8 µM. The TGI (M14 melanoma) was 37.5 µM, the TGI (M19-MEL melanoma) was 60.3 µM and the TGI (MALME-3M melanoma) was > 100 µM. For the same compound, the TGI (MOLT-4 leukemia) was 55.8 µM, the TGI (NCI-H226 lung) was 54.4 µM and the TGI (NCI-H23 lung) was > 100 µM. The TGI (NCI-H460 lung) was 80.2 µM, the TGI (NCI-H522 lung) was 52 µM and the TGI (OVCAR-3 ovarian) was 69.6 µM. For the same compound, the TGI (OVCAR-4 ovarian) was > 100 µM, the TGI (OVCAR-5 ovarian) was > 100 µM and the TGI (OVCAR-8 ovarian) was > 100 µM. For the same compound, the TGI (RPMI-8226 leukemia) was 35.8 µM, the TGI (RXF 393 renal) was 78.5 µM and the TGI (RXF-631 renal) was > 100 µM. The TGI (SF-268 CNS) was 70.9 µM, the TGI (SF-295 CNS) was 59.9 µM and the TGI (SF-539 CNS) was > 100 µM. For the same compound, the TGI (SK-MEL-2 melanoma) was > 100 µM, the TGI (SK-MEL-28 melanoma) was 38.4 µM and the TGI (SK-MEL-5 melanoma) was 25.6 µM. The TGI (SK-OV-3 ovarian) was 86.2 µM, the TGI (SN12C renal) was > 100 µM and the TGI (SNB-19 CNS) was > 100 µM. For the same compound, the TGI (SNB-75 CNS) was 69.7 µM, the TGI (SW-620 colon) was 78.7 µM and the TGI (TK-10 renal) was 85.8 µM. The TGI (U251 CNS) was > 100 µM, the TGI (UACC-257 melanoma) was 59.9 µM and the TGI (UACC-62 melanoma) was 42.7 µM. For the same compound, the TGI (UO-31 renal) was 82.7 µM and the TGI (XF 498 CNS) was 59.2 µM.
